# Laboratory results from paper PMC3914206.
# Columns and labels:
# Format in all cases: binding
# Conditions in all cases: Compound Concentration 10 µM
# [1] = biological target: T1, panel of 442 kinases (Homo sapiens, UniProt P00519, Y253F)
# T1 construct: purchased KINOMEscan
# Text: (§1) We assessed the selectivity of members of this scaffold using the KINOMEscan methodology across a near comprehensive panel of 442 kinases [[18,27]].
# [2] = biological target: T2, panel of 442 kinases (Homo sapiens, UniProt P15735)
# T2 construct: purchased KINOMEscan
# T2 sequence (P15735 1-406): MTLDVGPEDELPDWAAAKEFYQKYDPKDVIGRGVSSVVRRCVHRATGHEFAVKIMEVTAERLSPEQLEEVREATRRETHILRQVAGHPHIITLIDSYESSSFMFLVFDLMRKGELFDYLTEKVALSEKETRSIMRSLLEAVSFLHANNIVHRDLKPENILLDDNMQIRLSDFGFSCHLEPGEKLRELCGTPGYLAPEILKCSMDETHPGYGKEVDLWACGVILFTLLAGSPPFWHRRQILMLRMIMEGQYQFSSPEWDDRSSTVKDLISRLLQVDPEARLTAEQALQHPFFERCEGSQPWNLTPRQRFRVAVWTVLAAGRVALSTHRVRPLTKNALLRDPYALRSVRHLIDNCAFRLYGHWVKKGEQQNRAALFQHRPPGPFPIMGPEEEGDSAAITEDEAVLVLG
# Text: as §1
# [3] = biological target: T3, panel of 442 kinases (Homo sapiens, UniProt Q9HAZ1)
# T3 construct: purchased KINOMEscan
# T3 sequence (Q9HAZ1 whole entry): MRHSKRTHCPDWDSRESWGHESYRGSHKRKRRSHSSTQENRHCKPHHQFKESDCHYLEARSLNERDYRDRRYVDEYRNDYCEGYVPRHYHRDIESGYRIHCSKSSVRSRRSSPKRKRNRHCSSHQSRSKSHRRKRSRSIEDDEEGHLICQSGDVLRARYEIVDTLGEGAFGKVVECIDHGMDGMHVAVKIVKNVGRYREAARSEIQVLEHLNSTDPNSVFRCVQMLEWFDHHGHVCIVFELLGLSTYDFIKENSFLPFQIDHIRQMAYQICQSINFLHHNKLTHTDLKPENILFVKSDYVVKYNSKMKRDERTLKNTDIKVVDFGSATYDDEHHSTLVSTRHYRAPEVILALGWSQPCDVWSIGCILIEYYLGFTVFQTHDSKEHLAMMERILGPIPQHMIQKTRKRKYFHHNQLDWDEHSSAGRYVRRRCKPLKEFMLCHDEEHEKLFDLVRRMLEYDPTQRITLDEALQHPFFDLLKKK
# Text: as §1
SMILES,KINOMEscan: ABL1(Y253F)-phosphorylated [1],KINOMEscan: PHKG2 [2],KINOMEscan: CLK4 [3]
COc1cc(C(=O)N2CCC(N3CCN(C)CC3)CC2)ccc1Nc1ncc2c(n1)N(C)c1ccccc1C(=O)N2C [15 (LRRK2-IN-1)],89,33,54
CCOc1cc(C(=O)N2CCC(N3CCN(C)CC3)CC2)ccc1Nc1ncc2c(n1)N(C1CCCC1)c1ccccc1C(=O)N2C [Compound 26],100,90,100
COc1cc(C(=O)N2CCC(N3CCN(C)CC3)CC2)ccc1Nc1ncc2c(n1)N1CCc3cccc(c31)C(=O)N2C [Compound 24],,47,11
"COc1cc(C(=O)N2CCC(N3CCN(C)CC3)CC2)ccc1Nc1ncc2c(n1)N(C1CCCC1)c1ccccc1C(=O)N2C [Compound 25, 11-cyclopentyl-2-((2-methoxy-4-(4-(4-methylpiperazin-1-yl)piperidine-1-carbonyl)phenyl)amino)-5-methyl-5H-benzo[e]pyrimido[5,4-b][1,4]diazepin-6(11H)-one]",60,68,100
